From ChEMBL document CHEMBL1909046, “DrugMatrix in vitro pharmacology data”
pIC50, pKi: −log10 of the molar value.

Tests used:
[1] = molecular target: C-C chemokine receptor type 5 (Homo sapiens, UniProt P51681); type: cell membranes, Membrane; conditions: hek293; further: in other assays of this panel Not Active means under 50% inhibition at 10 µM
D(1A) dopamine receptor = D(1A) dopamine receptor (Homo sapiens, UniProt P21728); assay: DRUGMATRIX: Dopamine D1 radioligand binding (ligand: [3H] SCH-23390); type: cell membranes, CHO, Membrane; conditions: Not Active = under 50% inhibition at 10 µM
Chain of D(1A) dopamine receptor (P21728 whole entry): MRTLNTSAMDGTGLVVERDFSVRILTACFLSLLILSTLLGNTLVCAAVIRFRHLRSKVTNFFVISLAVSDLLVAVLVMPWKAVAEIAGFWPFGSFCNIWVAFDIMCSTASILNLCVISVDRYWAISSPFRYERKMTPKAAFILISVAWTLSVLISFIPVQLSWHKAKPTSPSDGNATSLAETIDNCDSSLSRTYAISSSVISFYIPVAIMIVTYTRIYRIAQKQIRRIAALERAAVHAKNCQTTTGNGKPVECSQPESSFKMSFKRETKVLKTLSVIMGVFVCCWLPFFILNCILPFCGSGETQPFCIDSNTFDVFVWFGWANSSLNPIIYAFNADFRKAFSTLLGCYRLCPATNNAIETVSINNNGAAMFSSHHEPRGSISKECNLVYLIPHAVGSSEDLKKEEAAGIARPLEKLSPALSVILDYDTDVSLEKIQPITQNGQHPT

[2] = DRUGMATRIX: Phosphodiesterase PDE4 enzyme inhibition (substrate: [3H]cAMP + cAMP); conditions: u-937; Not Active = under 50% inhibition at 10 µM
[3] = molecular target: Mitogen-activated protein kinase 14 (Homo sapiens, UniProt Q16539); design: species or system Escherichia coli;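 further: inhibition of p38alpha enzyme activity in a biochemical kinase assay, with myelin basic protein serving as substrate; in other assays of this panel Not Active means under 50% inhibition at 10 µM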
Chain of Mitogen-activated protein kinase 14 (Q16539 whole entry): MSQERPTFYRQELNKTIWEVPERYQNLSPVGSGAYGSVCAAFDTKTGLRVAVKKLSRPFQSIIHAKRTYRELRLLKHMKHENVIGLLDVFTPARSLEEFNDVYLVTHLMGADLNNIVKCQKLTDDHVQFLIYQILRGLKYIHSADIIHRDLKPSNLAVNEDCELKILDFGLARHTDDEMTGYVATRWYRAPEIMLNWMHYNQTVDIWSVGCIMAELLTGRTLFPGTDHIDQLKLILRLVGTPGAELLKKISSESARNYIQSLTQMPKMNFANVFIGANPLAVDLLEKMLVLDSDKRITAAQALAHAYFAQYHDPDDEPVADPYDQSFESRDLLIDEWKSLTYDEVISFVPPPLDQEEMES

[4] = molecular target: Tyrosine-protein kinase Fyn (Homo sapiens, UniProt P06241); assay: biochemical; type: cell-based, Insect cells; conditions: for pIC50: read-out: IC50;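 on all read-outs here: enzymatic inhibition of Fyn kinase activity measured with Poly(Glu:Tyr) as the phosphorylation substrate; in other assays of this panel Not Active means under 50% inhibition at 10 µM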
Chain of Tyrosine-protein kinase Fyn (P06241 whole entry): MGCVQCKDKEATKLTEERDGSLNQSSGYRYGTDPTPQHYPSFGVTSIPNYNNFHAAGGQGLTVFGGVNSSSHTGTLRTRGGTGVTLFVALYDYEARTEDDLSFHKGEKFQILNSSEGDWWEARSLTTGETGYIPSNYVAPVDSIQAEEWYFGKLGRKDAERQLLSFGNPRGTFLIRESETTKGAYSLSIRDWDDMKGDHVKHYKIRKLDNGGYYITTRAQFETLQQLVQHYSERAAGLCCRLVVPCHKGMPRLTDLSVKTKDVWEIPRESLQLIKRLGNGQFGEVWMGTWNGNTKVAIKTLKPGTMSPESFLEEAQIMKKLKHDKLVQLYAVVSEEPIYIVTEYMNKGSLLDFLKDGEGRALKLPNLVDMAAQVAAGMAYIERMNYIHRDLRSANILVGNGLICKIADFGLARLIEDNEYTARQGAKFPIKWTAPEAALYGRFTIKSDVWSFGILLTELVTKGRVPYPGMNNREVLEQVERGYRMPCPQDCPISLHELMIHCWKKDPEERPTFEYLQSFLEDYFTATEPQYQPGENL

[5] = molecular target: Receptor tyrosine-protein kinase erbB-2 (Homo sapiens, UniProt P04626); assay: biochemical; type: cell-based, Insect cells; conditions: insect cells;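 further: inhibition of HER2 kinase enzyme activity, measured with Poly(Glu:Tyr) as the phosphorylation substrate; in other assays of this panel Not Active means under 50% inhibition at 10 µM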

Chain of C-C chemokine receptor type 5 (P51681 whole entry): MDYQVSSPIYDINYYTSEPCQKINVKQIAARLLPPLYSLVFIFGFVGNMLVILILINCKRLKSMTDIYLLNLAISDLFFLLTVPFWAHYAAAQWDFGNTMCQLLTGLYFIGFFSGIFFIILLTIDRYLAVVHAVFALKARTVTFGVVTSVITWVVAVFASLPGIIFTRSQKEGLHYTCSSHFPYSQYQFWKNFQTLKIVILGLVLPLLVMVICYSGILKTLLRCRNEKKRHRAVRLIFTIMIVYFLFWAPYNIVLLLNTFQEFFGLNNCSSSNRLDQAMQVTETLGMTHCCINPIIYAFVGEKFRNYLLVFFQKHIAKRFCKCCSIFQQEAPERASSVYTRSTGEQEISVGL

Molecule | IC50 [1] | IC50 (D(1A) dopamine receptor; cho) | IC50 [2] | Ki [2] | IC50 [3] | IC50 ([4]; insect cells) | IC50 [5] | pIC50 [4] | pIC50 (D(1A) dopamine receptor; read-out: IC50) | pKi (D(1A) dopamine receptor; read-out: Ki) | Ki [1] | Ki (D(1A) dopamine receptor; cho) | pIC50 ([3]; read-out: IC50) | pIC50 ([4]; insect cells) | pIC50 ([5]; read-out: IC50)
CCn1cc(C(=O)O)c(=O)c2cc(F)c(N3CCNCC3)cc21 [NORFLOXACIN] | Not Active | Not Active | Not Active | Not Active | Not Active | Not Active | Not Active |  |  |  |  |  |  |  | 
NC1=NC(=O)C(c2ccccc2)O1 (configuration not stated) [PEMOLINE] | Not Active | Not Active | Not Active | Not Active | Not Active | Not Active | Not Active |  |  |  |  |  |  |  | 
Nc1nc2c(ncn2CCC(CO)CO)c(=O)[nH]1 [PENCICLOVIR] | Not Active | Not Active | Not Active | Not Active | Not Active | Not Active | Not Active |  |  |  |  |  |  |  | 
C=C(C)C1(O)OC(=O)C=C1OC (configuration not stated) [PENICILLIC ACID] | Not Active | Not Active | Not Active | Not Active | Not Active | Not Active | Not Active |  |  |  |  |  |  |  | 
CC1(C)S[C@@H]2[C@H](NC(=O)Cc3ccccc3)C(=O)N2[C@H]1C(=O)O [PENICILLIN G] | Not Active | Not Active | Not Active | Not Active | Not Active | Not Active | Not Active |  |  |  |  |  |  |  | 
C1CCC(C(CC2CCCCN2)C2CCCCC2)CC1 (configuration not stated) [PERHEXILINE] | Not Active | Not Active | Not Active | Not Active | Not Active |  | Not Active | 5.39 |  |  |  |  |  |  | 
CCOc1ccc(NC(C)=O)cc1 [PHENACETIN] | Not Active | Not Active | Not Active | Not Active | Not Active | Not Active | Not Active |  |  |  |  |  |  |  | 
Cc1ccc(N(CC2=NCCN2)c2cccc(O)c2)cc1 [PHENTOLAMINE] | Not Active | Not Active | Not Active | Not Active | Not Active | Not Active | Not Active |  |  |  |  |  |  |  | 
CNNCc1ccc(C(=O)NC(C)C)cc1 [PROCARBAZINE] | Not Active | Not Active | Not Active | Not Active | Not Active | Not Active | Not Active |  |  |  |  |  |  |  | 
CN(C)CCCN1c2ccccc2Sc2ccccc21 [PROMAZINE] | Not Active |  | Not Active | Not Active | Not Active | Not Active | Not Active |  | 5.61 | 5.91 |  |  |  |  | 
CC(O)CO (configuration not stated) [PROPYLENE GLYCOL] | Not Active | Not Active | Not Active | Not Active | Not Active | Not Active | Not Active |  |  |  |  |  |  |  | 
LIPOPOLYSACCHARIDE E. COLI O55:B5 | Not Active | Not Active | Not Active | Not Active |  |  |  |  |  |  | Not Active | Not Active | 7.22 | 6.72 | 6.35
